The source of these data is patent US20250163047A1, “HETEROCYCLIC COMPOUNDS, COMPOSITIONS THEREOF, AND METHODS OF TREATMENT THEREWITH” (BeiGene, Ltd., priority 2022, published 2025).

pIC50: −log10 of the molar value.

For assay [1], the target named is T1, Cbl-b (aa36-427) (Homo sapiens, UniProt Q13191).
T1 construct: Cbl-b (aa36-427, in-house); made in house
Description: Co-expressed Cbl-b with BirA biochemical assay (CBLB/E2-Ub binding, HTRF). The note with it: 0.6 nM Cbl-b co-expressed with BirA, HTRF; read-out: co-express CBLB/E2-Ub-binding assay IC50. The source says:
(§1) The assay in the absence of a Cbl-b/Cbl inhibitor, where phosphorylation of Cbl-b/Cbl by the Src kinase allows UbcH5B-Ub to bind to Cbl-b/Cbl and brings the Bodipy-Fluorescein tagged ubiquitin in proximity to the streptavidin-terbium bound to the N-terminal biotinylated Avi-tagged Cbl-b/Cbl. […] The lack of a FRET signal indicates Cbl-b/Cbl is inhibited by the Cbl-b/Cbl inhibitor.
Background: Time-resolved FRET reads energy transfer from a long-lived donor to a nearby acceptor.

Assay [2] addresses T2, Cbl (aa49-434) (Homo sapiens, UniProt P22681).
T2 construct: Cbl (aa49-434, in-house); made in house
T2 sequence (P22681 49-434): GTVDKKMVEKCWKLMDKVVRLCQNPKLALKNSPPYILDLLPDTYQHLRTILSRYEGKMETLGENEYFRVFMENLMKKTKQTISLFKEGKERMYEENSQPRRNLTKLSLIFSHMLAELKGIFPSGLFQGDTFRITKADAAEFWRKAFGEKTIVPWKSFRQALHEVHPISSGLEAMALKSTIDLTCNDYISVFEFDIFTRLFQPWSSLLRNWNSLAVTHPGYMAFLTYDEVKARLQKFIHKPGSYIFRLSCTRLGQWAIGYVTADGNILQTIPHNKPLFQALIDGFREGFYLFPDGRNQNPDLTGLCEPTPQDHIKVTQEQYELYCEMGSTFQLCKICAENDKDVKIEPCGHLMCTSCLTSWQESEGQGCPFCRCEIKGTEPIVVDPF
Description: Co-expressed Cbl with BirA biochemical assay (CBL/E2-Ub binding, HTRF). The note with it: 0.6 nM Cbl co-expressed with BirA, read-out: co-express CBL/E2-Ub-binding assay IC50.
Source text: as §1

T1 sequence (Q13191 36-427): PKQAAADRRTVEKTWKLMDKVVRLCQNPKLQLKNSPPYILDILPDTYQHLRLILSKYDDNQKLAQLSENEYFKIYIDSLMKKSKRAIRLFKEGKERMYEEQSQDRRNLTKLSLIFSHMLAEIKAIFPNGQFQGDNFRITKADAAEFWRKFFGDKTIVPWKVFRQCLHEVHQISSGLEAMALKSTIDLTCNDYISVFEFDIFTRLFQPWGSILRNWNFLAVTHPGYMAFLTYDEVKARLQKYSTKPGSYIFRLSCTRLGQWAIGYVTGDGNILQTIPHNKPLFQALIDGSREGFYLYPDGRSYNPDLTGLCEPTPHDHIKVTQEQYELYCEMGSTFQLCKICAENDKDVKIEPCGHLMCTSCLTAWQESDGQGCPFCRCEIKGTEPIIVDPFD

Regarding `C[C@@H]1CN(Cc2cc(C(=O)Nc3cccc([C@]4(c5nncn5C)C[C@@H](C)C4)c3)nc3c2CCC3(C)C)CC[C@@H]1F` [Compound C55, 4-(((3R,4S)-4-fluoro-3-methylpiperidin-1-yl)methyl)-7,7-dimethyl-N-(3-((1s,3S)-3-methyl-1-(4-methyl-4H-1,2,4-triazol-3-yl)cyclobutyl)phenyl)-6,7-dihydro-5H-cyclopenta[b]pyridine-2-carboxamide], the pIC50 in assay [1] is 8.96; in assay [2], 8.72.

As to `Cn1cnnc1[C@]1(c2cncc(NC(=O)c3cc(CNCC4CCC4)c4[nH]ccc4n3)c2)C[C@H](C)C1` [Compound B40, 7-{[(cyclobutylmethyl)amino]methyl}-N-{5-[(1r, 3s)-3-methyl-1-(4-methyl-1,2,4-triazol-3-yl)cyclobutyl]pyridin-3-yl}-1H-pyrrolo[3,2-b]pyridine-5-carboxamide], the pIC50 is 9.00 in assay [1] and 8.68 in assay [2].

On to `Cn1cnnc1[C@]1(c2cccc(NC(=O)c3cc(CNC4(C)CCC4)c4c(n3)C3(CC3)CN4)c2)C[C@H](CC#N)C1` [Compound C31, N-(3-((1s, 3s)-3-(cyanomethyl)-1-(4-methyl-4H-1,2,4-triazol-3-yl)cyclobutyl)phenyl)-7′-(((1-methylcyclobutyl)amino)methyl)-1′,2′-dihydrospiro[cyclopropane-1,3′-pyrrolo[3,2-b]pyridine]-5′-carboxamide], for which the pIC50 in assay [1] was 8.41; in assay [2], 7.77.

Consider `C[C@H](NCc1cc(C(=O)Nc2cccc([C@]3(c4nncn4C)C[C@@H](C)C3)c2)nc2c1CCC2(F)F)C1CCC1` [Compound C59, 4-((((S)-1-cyclobutylethyl)amino)methyl)-7,7-difluoro-N-(3-((1s,3R)-3-methyl-1-(4-methyl-4H-1,2,4-triazol-3-yl)cyclobutyl)phenyl)-6,7-dihydro-5H-cyclopenta[b]pyridine-2-carboxamide], for which the pIC50 in assay [1] was 8.60; in assay [2], 8.14.

Consider `Cn1cnnc1[C@]1(c2cccc(NC(=O)c3cc(CNC4(C)CC4)cn4cc(F)nc34)c2)C[C@H](CC#N)C1` [Compound A84, N-(3-((1s, 3s)-3-(cyanomethyl)-1-(4-methyl-4H-1,2,4-triazol-3-yl)cyclobutyl)phenyl)-2-fluoro-6-(((1-methylcyclopropyl)amino)methyl)imidazo[1,2-a]pyridine-8-carboxamide], for which the values for the pIC50 in assay [1] and in assay [2] were 9.30 and 7.92, respectively.

Consider `Cn1cnnc1[C@]1(c2cccc(NC(=O)c3cc(CNCC4CCCC4)c4c(n3)C(C)(C)CO4)c2)C[C@H](C)C1` [Compound C33, 7-(((cyclopentylmethyl)amino)methyl)-3,3-dimethyl-N-(3-((1s, 3s)-3-methyl-1-(4-methyl-4H-1,2,4-triazol-3-yl)cyclobutyl)phenyl)-2,3-dihydrofuro[3,2-b]pyridine-5-carboxamide], for which the values for the pIC50 in assay [1] and in assay [2] were 7.94 and 7.33, respectively.

On to `C[C@H]1CCCN(Cc2cc(C(=O)Nc3cccc([C@]4(c5nncn5C)C[C@@H](C)C4)c3)nc3cc[nH]c23)C1` [Compound B4, N-(3-((1s,3R)-3-methyl-1-(4-methyl-4H-1,2,4-triazol-3-yl)cyclobutyl)phenyl)-7-(((S)-3-methylpiperidin-1-yl)methyl)-1H-pyrrolo[3,2-b]pyridine-5-carboxamide], for which the pIC50 was 8.52 in assay [1] and 7.92 in assay [2].

With `C[C@H](NCc1cc(C(=O)Nc2cccc([C@]3(c4nncn4C)C[C@@H](CC#N)C3)c2)nc2c1CCC2(C)C)C1CCC1` [Compound C38, N-(3-((1s,3R)-3-(cyanomethyl)-1-(4-methyl-4H-1,2,4-triazol-3-yl)cyclobutyl)phenyl)-4-((((S)-1-cyclobutylethyl)amino)methyl)-7,7-dimethyl-6,7-dihydro-5H-cyclopenta[b]pyridine-2-carboxamide], the pIC50 in assay [1] was 8.96; in assay [2] it was 8.82.

Take `Cn1cnnc1[C@]1(c2cncc(NC(=O)c3cc(CNCC4CCC4)cn4c(F)cnc34)c2)C[C@H](C)C1` [Compound A71, 6-{[(cyclobutylmethyl)amino]methyl}-3-fluoro-N-{5-[(1r, 3s)-3-methyl-1-(4-methyl-1,2,4-triazol-3-yl)cyclobutyl]pyridin-3-yl}imidazo[1,2-a]pyridine-8-carboxamide]: the pIC50 is 9.22 in assay [1] and 9.05 in assay [2].

For `Cn1cnnc1[C@]1(c2cccc(NC(=O)c3cc(CNCC4CCC4)c4[nH]cc(F)c4n3)c2)C[C@H](C)C1` [Compound B36, 7-(((cyclobutylmethyl)amino)methyl)-3-fluoro-N-(3-((1s, 3s)-3-methyl-1-(4-methyl-4H-1,2,4-triazol-3-yl)cyclobutyl)phenyl)-1H-pyrrolo[3,2-b]pyridine-5-carboxamide], the pIC50 in assay [1] was 9.10; in assay [2], 8.64.

On to `Cc1cnc2c(C(=O)Nc3cccc([C@]4(c5nncn5C)C[C@@H](C)C4)c3)cc(CN[C@@H](C)C3CCC3)cn12` [Compound A60, 6-((((S)-1-cyclobutylethyl)amino)methyl)-3-methyl-N-(3-((1s,3R)-3-methyl-1-(4-methyl-4H-1,2,4-triazol-3-yl)cyclobutyl)phenyl)imidazo[1,2-a]pyridine-8-carboxamide], for which the pIC50 in assay [1] is 9.30; in assay [2], 8.96.

As to `CC(C)CNCc1cc(C(=O)Nc2cccc([C@]3(c4nncn4C)C[C@@H](C)C3)c2)nc2cc[nH]c12` [Compound B1, 7-((isobutylamino)methyl)-N-(3-((1s, 3s)-3-methyl-1-(4-methyl-4H-1,2,4-triazol-3-yl)cyclobutyl)phenyl)-1H-pyrrolo[3,2-b]pyridine-5-carboxamide], the pIC50 was 9.15 in assay [1] and 8.68 in assay [2].

`C[C@H]1CCCN(Cc2cc(C(=O)Nc3cccc([C@]4(c5nncn5C)C[C@@H](CC#N)C4)c3)n3ncc(F)c3c2)C1` [Compound A20, 3-fluoro-5-{[(3S)-3-methylpiperidin-1-yl]methyl}-N-{3-[(1s, 3s)-3-(cyanomethyl)-1-(4-methyl-1,2,4-triazol-3-yl)cyclobutyl]phenyl}pyrazolo[1,5-a]pyridine-7-carboxamide]: the figures for the pIC50 in assay [1] and in assay [2] were 8.52 and 7.58, respectively.

Consider `Cn1cnnc1[C@]1(c2cccc(NC(=O)c3cc(CNC4(C)CCC4)cn4c(Cl)cnc34)c2)C[C@H](C)C1` [Compound A66, 3-chloro-N-(3-((1s, 3s)-3-methyl-1-(4-methyl-4H-1,2,4-triazol-3-yl)cyclobutyl)phenyl)-6-(((1-methylcyclobutyl)amino)methyl)imidazo[1,2-a]pyridine-8-carboxamide], for which the pIC50 in assay [1] is 8.96; in assay [2] it was 8.47.

As to `C[C@H]1CCCN(Cc2cc(C(=O)Nc3cccc([C@]4(c5nncn5C)C[C@@H](CC#N)C4)c3)c3nc(F)cn3c2)C1` [Compound A13, N-(3-((1s,3R)-3-(cyanomethyl)-1-(4-methyl-4H-1,2,4-triazol-3-yl)cyclobutyl)phenyl)-2-fluoro-6-(((S)-3-methylpiperidin-1-yl)methyl)imidazo[1,2-a]pyridine-8-carboxamide], the pIC50 is 8.21 in assay [1] and 7.33 in assay [2].
